From ChEMBL document CHEMBL1201861, “Genomics of Drug Sensitity in Cancer screening data, Wellcome Trust Sanger Institute”

Tested on: Ca9-22;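 note: growth inhibition of Ca9-22 cells, read out with a cell viability assay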
Test: cells
Assay type: functional, cell-based, Homo sapiens
Details: Homo sapiens, Ca9-22
Description: SANGER: Inhibition of human Ca9-22 cell growth in a cell viability assay.

| Structure (SMILES) | IC50 [nM] |
| --- | --- |
| N#Cc1c(O)c2c(-c3ccc(-c4ccccc4O)cc3)csc2[nH]c1=O | > 1020 |

Tested on: DU-145
Test: cells
Assay type: functional, cell-based, Homo sapiens
Details: Homo sapiens, DU-145
Description: SANGER: Inhibition of human DU-145 cell growth in a cell viability assay.

| Structure (SMILES) | IC50 [nM] |
| --- | --- |
| N#Cc1c(O)c2c(-c3ccc(-c4ccccc4O)cc3)csc2[nH]c1=O | > 1020 |

Tested on: ECC4;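 note: growth inhibition of ECC4 cells, read out with a cell viability assay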
Test: cells
Assay type: functional, cell-based, Homo sapiens
Details: Homo sapiens, ECC4
Description: SANGER: Inhibition of human ECC4 cell growth in a cell viability assay.

| Structure (SMILES) | IC50 [nM] |
| --- | --- |
| N#Cc1c(O)c2c(-c3ccc(-c4ccccc4O)cc3)csc2[nH]c1=O | 509 |

Tested on: EFM-19;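 note: growth inhibition of human EFM-19 cells, measured in a cell viability assay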
Test: cells
Assay type: functional, cell-based, Homo sapiens
Details: Homo sapiens, EFM-19
Description: SANGER: Inhibition of human EFM-19 cell growth in a cell viability assay.

| Structure (SMILES) | IC50 [nM] |
| --- | --- |
| N#Cc1c(O)c2c(-c3ccc(-c4ccccc4O)cc3)csc2[nH]c1=O | > 1020 |

Tested on: GMS-10;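 note: growth inhibition of GMS-10 cells, read out as cell viability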
Test: cells
Assay type: functional, cell-based, Homo sapiens
Details: Homo sapiens, GMS-10
Description: SANGER: Inhibition of human GMS-10 cell growth in a cell viability assay.

| Structure (SMILES) | IC50 [nM] |
| --- | --- |
| N#Cc1c(O)c2c(-c3ccc(-c4ccccc4O)cc3)csc2[nH]c1=O | > 1020 |

Tested on: GP5d;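 note: growth inhibition of human GP5d cells, read out with a cell viability assay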
Test: cells
Assay type: functional, cell-based, Homo sapiens
Details: Homo sapiens, GP5d
Description: SANGER: Inhibition of human GP5d cell growth in a cell viability assay.

| Structure (SMILES) | IC50 [nM] |
| --- | --- |
| N#Cc1c(O)c2c(-c3ccc(-c4ccccc4O)cc3)csc2[nH]c1=O | > 1020 |

Tested on: HCC1599;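 note: growth inhibition of HCC1599 cells, read out in a cell viability assay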
Test: cells
Assay type: functional, cell-based, Homo sapiens
Details: Homo sapiens, HCC1599
Description: SANGER: Inhibition of human HCC1599 cell growth in a cell viability assay.

| Structure (SMILES) | IC50 [nM] |
| --- | --- |
| N#Cc1c(O)c2c(-c3ccc(-c4ccccc4O)cc3)csc2[nH]c1=O | 278 |

Tested on: HCC1937;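 note: growth inhibition measured with a cell viability read-out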
Test: cells
Assay type: functional, cell-based, Homo sapiens
Details: Homo sapiens, HCC1937
Description: SANGER: Inhibition of human HCC1937 cell growth in a cell viability assay.

| Structure (SMILES) | IC50 [nM] |
| --- | --- |
| N#Cc1c(O)c2c(-c3ccc(-c4ccccc4O)cc3)csc2[nH]c1=O | > 1020 |

Tested on: HEC-1;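 note: growth inhibition of the cell line, read out with a cell viability assay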
Test: cells
Assay type: functional, cell-based, Homo sapiens
Details: Homo sapiens, HEC-1
Description: SANGER: Inhibition of human HEC-1 cell growth in a cell viability assay.

| Structure (SMILES) | IC50 [nM] |
| --- | --- |
| N#Cc1c(O)c2c(-c3ccc(-c4ccccc4O)cc3)csc2[nH]c1=O | > 1020 |

Tested on: HGC-27;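 note: growth inhibition of human HGC-27 cells, read out in a cell viability assay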
Test: cells
Assay type: functional, cell-based, Homo sapiens
Details: Homo sapiens, HGC-27
Description: SANGER: Inhibition of human HGC-27 cell growth in a cell viability assay.

| Structure (SMILES) | IC50 [nM] |
| --- | --- |
| N#Cc1c(O)c2c(-c3ccc(-c4ccccc4O)cc3)csc2[nH]c1=O | > 1020 |

Tested on: HuP-T3;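 note: HuP-T3 cell growth inhibition, read out with a cell viability assay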
Test: cells
Assay type: functional, cell-based, Homo sapiens
Details: Homo sapiens, HuP-T3
Description: SANGER: Inhibition of human HuP-T3 cell growth in a cell viability assay.

| Structure (SMILES) | IC50 [nM] |
| --- | --- |
| N#Cc1c(O)c2c(-c3ccc(-c4ccccc4O)cc3)csc2[nH]c1=O | > 1020 |

Tested on: KYSE-140;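 note: cell viability assay measuring growth inhibition in human KYSE-140 cells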
Test: cells
Assay type: functional, cell-based, Homo sapiens
Details: Homo sapiens, KYSE-140
Description: SANGER: Inhibition of human KYSE-140 cell growth in a cell viability assay.

| Structure (SMILES) | IC50 [nM] |
| --- | --- |
| N#Cc1c(O)c2c(-c3ccc(-c4ccccc4O)cc3)csc2[nH]c1=O | > 1020 |

Tested on: KYSE-450;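 note: cell growth inhibition measured by a viability assay in human KYSE-450 cells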
Test: cells
Assay type: functional, cell-based, Homo sapiens
Details: Homo sapiens, KYSE-450
Description: SANGER: Inhibition of human KYSE-450 cell growth in a cell viability assay.

| Structure (SMILES) | IC50 [nM] |
| --- | --- |
| N#Cc1c(O)c2c(-c3ccc(-c4ccccc4O)cc3)csc2[nH]c1=O | > 1020 |

Tested on: LCLC-103H cell line
Test: cells
Assay type: functional, cell-based, Homo sapiens
Details: Homo sapiens, LCLC-103H
Description: SANGER: Inhibition of human LCLC-103H cell growth in a cell viability assay.

| Structure (SMILES) | IC50 [nM] |
| --- | --- |
| N#Cc1c(O)c2c(-c3ccc(-c4ccccc4O)cc3)csc2[nH]c1=O | > 1020 |

Tested on: LK-2;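 note: growth inhibition of LK-2 cells, read out with a viability assay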
Test: cells
Assay type: functional, cell-based, Homo sapiens
Details: Homo sapiens, LK-2
Description: SANGER: Inhibition of human LK-2 cell growth in a cell viability assay.

| Structure (SMILES) | IC50 [nM] |
| --- | --- |
| N#Cc1c(O)c2c(-c3ccc(-c4ccccc4O)cc3)csc2[nH]c1=O | > 1020 |

Tested on: M14;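 note: growth inhibition of M14 cells, read out with a cell viability assay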
Test: cells
Assay type: functional, cell-based, Homo sapiens
Details: Homo sapiens, M14
Description: SANGER: Inhibition of human M14 cell growth in a cell viability assay.

| Structure (SMILES) | IC50 [nM] |
| --- | --- |
| N#Cc1c(O)c2c(-c3ccc(-c4ccccc4O)cc3)csc2[nH]c1=O | > 1020 |

Tested on: MDA-MB-134-VI
Test: cells
Assay type: functional, cell-based, Homo sapiens
Details: Homo sapiens, MDA-MB-134-VI
Description: SANGER: Inhibition of human MDA-MB-134-VI cell growth in a cell viability assay.

| Structure (SMILES) | IC50 [nM] |
| --- | --- |
| N#Cc1c(O)c2c(-c3ccc(-c4ccccc4O)cc3)csc2[nH]c1=O | > 1020 |

Tested on: MDA-MB-231
Test: cells
Assay type: functional, cell-based, Homo sapiens
Details: Homo sapiens, MDA-MB-231
Description: SANGER: Inhibition of human MDA-MB-231 cell growth in a cell viability assay.

| Structure (SMILES) | IC50 [nM] |
| --- | --- |
| N#Cc1c(O)c2c(-c3ccc(-c4ccccc4O)cc3)csc2[nH]c1=O | > 1020 |

Tested on: MG-63;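 note: growth inhibition of human MG-63 cells, read out with a cell viability assay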
Test: cells
Assay type: functional, cell-based, Homo sapiens
Details: Homo sapiens, MG-63
Description: SANGER: Inhibition of human MG-63 cell growth in a cell viability assay.

| Structure (SMILES) | IC50 [nM] |
| --- | --- |
| N#Cc1c(O)c2c(-c3ccc(-c4ccccc4O)cc3)csc2[nH]c1=O | > 1020 |

Tested on: MIA PaCa-2;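 note: growth inhibition of MIA PaCa-2 cells, read out with a cell viability assay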
Test: cells
Assay type: functional, cell-based, Homo sapiens
Details: Homo sapiens, MIA PaCa-2
Description: SANGER: Inhibition of human MIA-PaCa-2 cell growth in a cell viability assay.

| Structure (SMILES) | IC50 [nM] |
| --- | --- |
| N#Cc1c(O)c2c(-c3ccc(-c4ccccc4O)cc3)csc2[nH]c1=O | > 1020 |

Tested on: MONO-MAC-6;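 note: cell viability assay measuring growth inhibition of human MONO-MAC-6 cells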
Test: cells
Assay type: functional, cell-based, Homo sapiens
Details: Homo sapiens, MONO-MAC-6
Description: SANGER: Inhibition of human MONO-MAC-6 cell growth in a cell viability assay.

| Structure (SMILES) | IC50 [nM] |
| --- | --- |
| N#Cc1c(O)c2c(-c3ccc(-c4ccccc4O)cc3)csc2[nH]c1=O | 114 |

Tested on: MeWo;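 note: growth inhibition of MeWo cells, determined by a cell viability readout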
Test: cells
Assay type: functional, cell-based, Homo sapiens
Details: Homo sapiens, MeWo
Description: SANGER: Inhibition of human Mewo cell growth in a cell viability assay.

| Structure (SMILES) | IC50 [nM] |
| --- | --- |
| N#Cc1c(O)c2c(-c3ccc(-c4ccccc4O)cc3)csc2[nH]c1=O | > 1020 |

Tested on: NCI-H1522;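 note: growth inhibition of NCI-H1522 cells, read out with a cell viability assay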
Test: cells
Assay type: functional, cell-based, Homo sapiens
Details: Homo sapiens, NCI-H1522
Description: SANGER: Inhibition of human NCI-H1522 cell growth in a cell viability assay.

| Structure (SMILES) | IC50 [nM] |
| --- | --- |
| N#Cc1c(O)c2c(-c3ccc(-c4ccccc4O)cc3)csc2[nH]c1=O | 194 |

Tested on: NCI-H1623;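 note: cell viability assay used as the read-out for growth inhibition of NCI-H1623 cells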
Test: cells
Assay type: functional, cell-based, Homo sapiens
Details: Homo sapiens, NCI-H1623
Description: SANGER: Inhibition of human NCI-H1623 cell growth in a cell viability assay.

| Structure (SMILES) | IC50 [nM] |
| --- | --- |
| N#Cc1c(O)c2c(-c3ccc(-c4ccccc4O)cc3)csc2[nH]c1=O | > 1020 |

Tested on: NCI-H1693;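 note: growth inhibition of the human cell line, read out with a cell viability assay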
Test: cells
Assay type: functional, cell-based, Homo sapiens
Details: Homo sapiens, NCI-H1693
Description: SANGER: Inhibition of human NCI-H1693 cell growth in a cell viability assay.

| Structure (SMILES) | IC50 [nM] |
| --- | --- |
| N#Cc1c(O)c2c(-c3ccc(-c4ccccc4O)cc3)csc2[nH]c1=O | > 1020 |

Tested on: NCI-H1793;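 note: cell growth inhibition, read out by a cell viability assay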
Test: cells
Assay type: functional, cell-based, Homo sapiens
Details: Homo sapiens, NCI-H1793
Description: SANGER: Inhibition of human NCI-H1793 cell growth in a cell viability assay.

| Structure (SMILES) | IC50 [nM] |
| --- | --- |
| N#Cc1c(O)c2c(-c3ccc(-c4ccccc4O)cc3)csc2[nH]c1=O | > 1020 |

Tested on: OPM-2;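 note: growth of OPM-2 cells measured with a viability assay, IC50 for suppression of proliferation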
Test: cells
Assay type: functional, cell-based, Homo sapiens
Details: Homo sapiens, OPM-2
Description: SANGER: Inhibition of human OPM-2 cell growth in a cell viability assay.

| Structure (SMILES) | IC50 [nM] |
| --- | --- |
| N#Cc1c(O)c2c(-c3ccc(-c4ccccc4O)cc3)csc2[nH]c1=O | 218 |

Tested on: PA-1;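 note: IC50 for suppression of PA-1 cell proliferation, determined with a cell viability read-out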
Test: cells
Assay type: functional, cell-based, Homo sapiens
Details: Homo sapiens, PA-1
Description: SANGER: Inhibition of human PA-1 cell growth in a cell viability assay.

| Structure (SMILES) | IC50 [nM] |
| --- | --- |
| N#Cc1c(O)c2c(-c3ccc(-c4ccccc4O)cc3)csc2[nH]c1=O | > 1020 |

Tested on: SIMA;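 note: growth inhibition of SIMA cells, measured with a cell viability readout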
Test: cells
Assay type: functional, cell-based, Homo sapiens
Details: Homo sapiens, SIMA
Description: SANGER: Inhibition of human SIMA cell growth in a cell viability assay.

| Structure (SMILES) | IC50 [nM] |
| --- | --- |
| N#Cc1c(O)c2c(-c3ccc(-c4ccccc4O)cc3)csc2[nH]c1=O | > 1020 |

Tested on: SJRH30;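 note: growth inhibition of human SJRH30 cells, read out with a cell viability assay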
Test: cells
Assay type: functional, cell-based, Homo sapiens
Details: Homo sapiens, SJRH30
Description: SANGER: Inhibition of human SJRH30 cell growth in a cell viability assay.

| Structure (SMILES) | IC50 [nM] |
| --- | --- |
| N#Cc1c(O)c2c(-c3ccc(-c4ccccc4O)cc3)csc2[nH]c1=O | 495 |

Tested on: SK-HEP1;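 note: cell viability readout used to quantify reduction in proliferation of human SK-HEP-1 cells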
Test: cells
Assay type: functional, cell-based, Homo sapiens, SK-HEP-1
Details: Homo sapiens, SK-HEP1
Description: SANGER: Inhibition of human SK-HEP-1 cell growth in a cell viability assay.

| Structure (SMILES) | IC50 [nM] |
| --- | --- |
| N#Cc1c(O)c2c(-c3ccc(-c4ccccc4O)cc3)csc2[nH]c1=O | > 1020 |

Tested on: SK-MEL-24;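 note: growth inhibition read out by a cell viability assay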
Test: cells
Assay type: functional, cell-based, Homo sapiens
Details: Homo sapiens, SK-MEL-24
Description: SANGER: Inhibition of human SK-MEL-24 cell growth in a cell viability assay.

| Structure (SMILES) | IC50 [nM] |
| --- | --- |
| N#Cc1c(O)c2c(-c3ccc(-c4ccccc4O)cc3)csc2[nH]c1=O | > 1020 |

Tested on: SK-MEL-30;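 note: growth inhibition of SK-MEL-30 cells, determined with a cell viability assay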
Test: cells
Assay type: functional, cell-based, Homo sapiens
Details: Homo sapiens, SK-MEL-30
Description: SANGER: Inhibition of human SK-MEL-30 cell growth in a cell viability assay.

| Structure (SMILES) | IC50 [nM] |
| --- | --- |
| N#Cc1c(O)c2c(-c3ccc(-c4ccccc4O)cc3)csc2[nH]c1=O | > 1020 |

Tested on: SW780;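 note: growth inhibition of the cells, read out with a cell viability assay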
Test: cells
Assay type: functional, cell-based, Homo sapiens
Details: Homo sapiens, SW780
Description: SANGER: Inhibition of human SW780 cell growth in a cell viability assay.

| Structure (SMILES) | IC50 [nM] |
| --- | --- |
| N#Cc1c(O)c2c(-c3ccc(-c4ccccc4O)cc3)csc2[nH]c1=O | > 1020 |

Tested on: CWR22R;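 note: growth inhibition of 22Rv1 cells, read out with a cell viability assay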
Test: cells
Assay type: functional, cell-based, Homo sapiens
Details: Homo sapiens, 22Rv1
Description: SANGER: Inhibition of human 22RV1 cell growth in a cell viability assay.

| Structure (SMILES) | IC50 [nM] |
| --- | --- |
| N#Cc1c(O)c2c(-c3ccc(-c4ccccc4O)cc3)csc2[nH]c1=O | > 1020 |

Tested on: 769-P
Test: cells
Assay type: functional, cell-based, Homo sapiens
Details: Homo sapiens, 769-P
Description: SANGER: Inhibition of human 769-P cell growth in a cell viability assay.

| Structure (SMILES) | IC50 [nM] |
| --- | --- |
| N#Cc1c(O)c2c(-c3ccc(-c4ccccc4O)cc3)csc2[nH]c1=O | > 1020 |

Tested on: A673;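 note: growth inhibition of human A673 cells, read out through a cell viability assay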
Test: cells
Assay type: functional, cell-based, Homo sapiens
Details: Homo sapiens, A673
Description: SANGER: Inhibition of human A673 cell growth in a cell viability assay.

| Structure (SMILES) | IC50 [nM] |
| --- | --- |
| N#Cc1c(O)c2c(-c3ccc(-c4ccccc4O)cc3)csc2[nH]c1=O | > 1020 |

Tested on: BL-41;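 note: growth inhibition of human BL-41 cells, read out with a cell viability assay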
Test: cells
Assay type: functional, cell-based, Homo sapiens
Details: Homo sapiens, BL-41
Description: SANGER: Inhibition of human BL-41 cell growth in a cell viability assay.

| Structure (SMILES) | IC50 [nM] |
| --- | --- |
| N#Cc1c(O)c2c(-c3ccc(-c4ccccc4O)cc3)csc2[nH]c1=O | 189 |

Tested on: BL-70
Test: SANGER: Inhibition of human BL-70 cell growth in a cell viability assay.
Assay type: functional, cell-based
Details: Homo sapiens, BL-70

| Structure (SMILES) | IC50 [nM] |
| --- | --- |
| N#Cc1c(O)c2c(-c3ccc(-c4ccccc4O)cc3)csc2[nH]c1=O | 108 |

Tested on: CAL-27;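 note: Viability-based readout, IC50 reflecting inhibition of CAL-27 cell growth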
Test: cells
Assay type: functional, cell-based, Homo sapiens
Details: Homo sapiens, CAL-27
Description: SANGER: Inhibition of human CAL-27 cell growth in a cell viability assay.

| Structure (SMILES) | IC50 [nM] |
| --- | --- |
| N#Cc1c(O)c2c(-c3ccc(-c4ccccc4O)cc3)csc2[nH]c1=O | > 1020 |

Tested on: CAL-39;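 note: cell viability assay measuring growth inhibition of CAL-39 cells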
Test: cells
Assay type: functional, cell-based, Homo sapiens
Details: Homo sapiens, CAL-39
Description: SANGER: Inhibition of human CAL-39 cell growth in a cell viability assay.

| Structure (SMILES) | IC50 [nM] |
| --- | --- |
| N#Cc1c(O)c2c(-c3ccc(-c4ccccc4O)cc3)csc2[nH]c1=O | > 1020 |

Tested on: CAL-51;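 note: human CAL-51 cell line, growth inhibition read out via a cell viability assay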
Test: cells
Assay type: functional, cell-based, Homo sapiens
Details: Homo sapiens, CAL-51
Description: SANGER: Inhibition of human CAL-51 cell growth in a cell viability assay.

| Structure (SMILES) | IC50 [nM] |
| --- | --- |
| N#Cc1c(O)c2c(-c3ccc(-c4ccccc4O)cc3)csc2[nH]c1=O | > 1020 |

Tested on: CAL-62;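 note: growth inhibition of CAL-62 cells, read out with a cell viability assay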
Test: cells
Assay type: functional, cell-based, Homo sapiens
Details: Homo sapiens, CAL-62
Description: SANGER: Inhibition of human CAL-62 cell growth in a cell viability assay.

| Structure (SMILES) | IC50 [nM] |
| --- | --- |
| N#Cc1c(O)c2c(-c3ccc(-c4ccccc4O)cc3)csc2[nH]c1=O | > 1020 |

Tested on: TE-15;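 note: cell viability readout of growth inhibition in TE-15 cells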
Test: cells
Assay type: functional, cell-based, Homo sapiens
Details: Homo sapiens, TE-15
Description: SANGER: Inhibition of human TE-15 cell growth in a cell viability assay.

| Structure (SMILES) | IC50 [nM] |
| --- | --- |
| N#Cc1c(O)c2c(-c3ccc(-c4ccccc4O)cc3)csc2[nH]c1=O | > 1020 |

Tested on: WM-115
Test: cells
Assay type: functional, cell-based, Homo sapiens
Details: Homo sapiens, WM-115
Description: SANGER: Inhibition of human WM-115 cell growth in a cell viability assay.

| Structure (SMILES) | IC50 [nM] |
| --- | --- |
| N#Cc1c(O)c2c(-c3ccc(-c4ccccc4O)cc3)csc2[nH]c1=O | > 1020 |

Tested on: CESS
Test: SANGER: Inhibition of human CESS cell growth in a cell viability assay.
Assay type: functional, cell-based
Details: Homo sapiens, CESS

| Structure (SMILES) | IC50 [nM] |
| --- | --- |
| N#Cc1c(O)c2c(-c3ccc(-c4ccccc4O)cc3)csc2[nH]c1=O | 101 |

Tested on: CHP-212
Test: cells
Assay type: functional, cell-based, Homo sapiens
Details: Homo sapiens, CHP-212
Description: SANGER: Inhibition of human CHP-212 cell growth in a cell viability assay.

| Structure (SMILES) | IC50 [nM] |
| --- | --- |
| N#Cc1c(O)c2c(-c3ccc(-c4ccccc4O)cc3)csc2[nH]c1=O | > 1020 |
